Results as given in patent publication US7834049B2, “Integrin expression inhibitor” (Eisai R&D Management Co., Ltd., priority 2000, dated 2010).
In brackets after ≈: the same amount, converted by molar mass.

Experiments:
integrin α2 [1] = assay: Integrin expression inhibitory action on HUVEC (flow cytometer); type: cell-based, human; conditions: 0.05 μg/ml, 48 hours
Description: (§1) Human umbilical venous endothelial cells (HUVEC) of 5×10^5 in number were seeded in a 75 cm^2 cell culture bottle and then cultured using an EGM medium (Sanko Junyaku) at 37° C. in a CO2 incubator. Then, after 3 hours, the EGM medium was exchanged for the same medium including compound A, which was then cultured for further 48 hours. Next, the cells were collected and washed with a bovine serum albumin-containing phosphate buffer solution and the above buffer solution containing various anti-human integrin mouse antibodies was added to the cells and the solution containing cells was allowed to stand at 4° C. for 30 minutes. After washed, FITC connective anti-mouse IgG antibody was added to the cells, which was then allowed to stand for 30 minutes and washed again. Next, the cells were fixed and the amount of antibody connected per cell was measured as the amount of FITC by using a flow cytometer.

integrin α3 [2] = assay: as above; type: cell-based, human; conditions: 0.05 μg/ml, 48 hours
Description: as §1

integrin α5 [3] = assay: as above; type: cell-based, human; conditions: 0.05 μg/ml, 48 hours
Description: as §1

integrin α6 [4] = assay: as above; type: cell-based, human; conditions: 0.05 μg/ml, 48 hours
Description: as §1

integrin αv = assay: as above; type: cell-based, human; conditions: 0.05 μg/ml, 48 hours
Description: as §1

integrin β1 [5] = assay: as above; type: cell-based, human; conditions: 0.05 μg/ml, 48 hours
Description: as §1

integrin β3 = assay: as above; type: cell-based, human; conditions: 0.05 μg/ml, 48 hours
Description: as §1

integrin β5 = assay: as above; type: cell-based, human; conditions: 0.05 μg/ml, 48 hours
Description: as §1

integrin α2 [6] = assay: Integrin expression inhibitory action on human colonic cancer cell line HCT116-C9; type: cell-based
integrin α3 [7] = assay: as above; type: cell-based
integrin α5 [8] = assay: as above; type: cell-based
integrin α6 [9] = assay: as above; type: cell-based
Description: [Worded in the source for another cell line; this cell line is reported under the same test.] as §1
(§2) The integrin expression inhibitory action of the compound A on the above cells was examined in the same manner as in Example 1.

integrin β1 [10] = assay: as above; type: cell-based
integrin β4 = assay: as above; type: cell-based
integrin α2 [11] = assay: Integrin expression inhibitory action on human normal fibroblast cell line WI38; type: cell-based; conditions: WI38, higher concentration than in Examples 1 and 2 (0.5 μg/ml and 5 μg/ml), 48 hours
Description: [Worded in the source for another cell line; this cell line is reported under the same test.] as §1, §2

integrin α5 [12] = assay: as above; type: cell-based; conditions: WI38, higher concentration than in Examples 1 and 2 (0.5 μg/ml and 5 μg/ml), 48 hours
Description: [Worded in the source for another cell line; this cell line is reported under the same test.] as §1, §2

integrin α6 [13] = assay: as above; type: cell-based; conditions: WI38, higher concentration than in Examples 1 and 2 (0.5 μg/ml and 5 μg/ml), 48 hours
Description: [Worded in the source for another cell line; this cell line is reported under the same test.] as §1, §2

integrin β1 [14] = assay: as above; type: cell-based; conditions: WI38, higher concentration than in Examples 1 and 2 (0.5 μg/ml and 5 μg/ml), 48 hours
Description: [Worded in the source for another cell line; this cell line is reported under the same test.] as §1, §2

integrin α3 [15] = assay: as above; type: cell-based; conditions: WI38, higher concentration than in Examples 1 and 2 (0.5 μg/ml and 5 μg/ml), 48 hours
integrin α4 = assay: as above; type: cell-based; conditions: WI38, higher concentration than in Examples 1 and 2 (0.5 μg/ml and 5 μg/ml), 48 hours
integrin α1 = assay: as above; type: cell-based; conditions: WI38, higher concentration than in Examples 1 and 2 (0.5 μg/ml and 5 μg/ml), 48 hours
[16] = test system: Human umbilical venous endothelial cells (HUVEC); assay: Antiangiogenic effect-2: HUVEC tube formation between collagen layers; type: cell-based; conditions: 96 h, HUVEC in type I collagen, 10 ng/ml EGF and 20 ng/ml bFGF, cultured 4 days, read-out: IC50, area of the formed tube
Description: 0.4 ml of type I collagen was added to a 24-well plate and solidified. Human umbilical venous endothelial cells (HUVEC) of 8×10^4 in number were seeded on the collagen and cultured overnight by using endothelial cells culture solution (Gibco BRL) containing 10 ng/ml EGF and 20 ng/ml bFGF. Next, the supernatant was removed and then 0.4 ml of the same collagen was overlaid. A culture solution containing 1.5 ml of the compound A was further added and the cells were cultured for 4 days. Thereafter, the area of the formed tube was measured quantitatively by image analysis.

[17] = test system: human colic cancer cell strains (WiDr) chamber in C57 Black female mouse; assay: Antiangiogenic effect-3 (in vivo): mouse air capsule method with WiDr chamber; conditions: dose of 50 mg/kg, orally administered, once a day; measured 4 days after chamber transplantation
Description: The above activity was evaluated using a method obtained by improving a mouse air capsule method (Sakamoto et al., Cancer Res., 1, 55-57, 1986) in part. Specifically, a millipore ring (Nippon Millipore) was sealed using a 0.22 μm membrane filter (HAWPO, Nippon Millipore) to form a chamber. 1×10^7 human colic cancer cell strains (WiDr) which were suspended in a phosphoric acid buffer solution were sealed into the chamber. Next, an air capsule was formed on a subcutaneous site of the backside of a C57 Black female mouse of 6 to 8 weeks age and the foregoing chamber was transplanted to the air capsule. The compound A was orally administered after about 6 hours passed after the transplantation was finished and afterwards administered in sequence once a day for 3 days. The erythrocytes of the mouse that was labeled with ^51Cr was injected from the tail vein 4 days after the chamber was transplanted. […] Then, a value obtained by subtracting the amount of blood measured in the case of the chamber including no cancer cell from the above amount of blood was determined as the amount of angiogenesis. […] If the results are evaluated by T/C (%): the amount of angiogenesis of the compound-administered groups/the amount of angiogenesis of the vehicle-administered groups×100, the compound A had such an effect as T/C=53% at a dose of 50 mg/kg.

[18] = HCT116-C9, 0.05 μg/ml, 48 hours

Structure (SMILES): Cc1ccc(NS(=O)(=O)c2cccc(C#N)c2)c2[nH]cc(C#N)c12 [compound A, N-(3-Cyano-4-methyl-1H-indole-7-yl)-3-cyanobenzenesulfonamide]
- expression of integrin α2 on the surface of the cell (integrin α2 [1]): inhibited
- expression of integrin α3 on the surface of the cell (integrin α3 [2]): inhibited
- expression of integrin α5 on the surface of the cell (integrin α5 [3]): inhibited
- expression of integrin α6 on the surface of the cell (integrin α6 [4]): inhibited
- expression of integrin αv on the surface of the cell (integrin αv): inhibited
- expression of integrin β1 on the surface of the cell (integrin β1 [5]): inhibited
- expression of integrin β3 on the surface of the cell (integrin β3): inhibited
- expression of integrin β5 on the surface of the cell (integrin β5): inhibited
- expression of integrin α2 (integrin α2 [6]; [18]): inhibited
- expression of integrin α2 (integrin α2 [6]; HCT116-C9, 0.5 μg/ml): inhibited
- expression of integrin α3 (integrin α3 [7]; [18]): inhibited
- expression of integrin α3 (integrin α3 [7]; HCT116-C9, 0.5 μg/ml): inhibited
- expression of integrin α5 (integrin α5 [8]; [18]): inhibited
- expression of integrin α5 (integrin α5 [8]; HCT116-C9, 0.5 μg/ml): inhibited
- expression of integrin α6 (integrin α6 [9]; [18]): inhibited
- expression of integrin α6 (integrin α6 [9]; HCT116-C9, 0.5 μg/ml): inhibited
- expression of integrin β1 (integrin β1 [10]; [18]): inhibited
- expression of integrin β1 (integrin β1 [10]; HCT116-C9, 0.5 μg/ml): inhibited
- expression of integrin β4 (integrin β4; [18]): inhibited
- expression of integrin β4 (integrin β4; HCT116-C9, 0.5 μg/ml): inhibited
- expression of integrin α2 (integrin α2 [11]): slightly inhibited
- expression of integrin α5 (integrin α5 [12]): no influence
- expression of integrin α6 (integrin α6 [13]): no influence
- expression of integrin β1 (integrin β1 [14]): no influence
- expression of integrin α3 (integrin α3 [15]): slightly inhibited
- expression of integrin α4 (integrin α4): slightly inhibited
- expression of integrin α1 (integrin α1): no influence
- IC50 [16]: 0.12 µg/mL (≈ 0.357 µM)
- T/C (%): amount of angiogenesis of compound-administered groups / vehicle-administered groups ×100 [17]: 53%
